Each structure is given as a SMILES string. A value given as a limit tells only on which side of the number the result lay.

In this test the target is GLP1R (Homo sapiens, UniProt P43220). As to the kind of experiment: GLP1R cAMP HTRF assay, HEK293/GLP-1R/CRE/Luc (HEK293T cells). Type of test: cell-based. The note with it: read-out: EC50. In outline: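 cAMP accumulation via HTRF after 30 min, 37 °C exposure of 1000 receptor-expressing cells/well to compound (0.5% DMSO final) in IBMX (500 μM)/0.1% BSA DPBS.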
Chain of GLP1R (P43220 24-463): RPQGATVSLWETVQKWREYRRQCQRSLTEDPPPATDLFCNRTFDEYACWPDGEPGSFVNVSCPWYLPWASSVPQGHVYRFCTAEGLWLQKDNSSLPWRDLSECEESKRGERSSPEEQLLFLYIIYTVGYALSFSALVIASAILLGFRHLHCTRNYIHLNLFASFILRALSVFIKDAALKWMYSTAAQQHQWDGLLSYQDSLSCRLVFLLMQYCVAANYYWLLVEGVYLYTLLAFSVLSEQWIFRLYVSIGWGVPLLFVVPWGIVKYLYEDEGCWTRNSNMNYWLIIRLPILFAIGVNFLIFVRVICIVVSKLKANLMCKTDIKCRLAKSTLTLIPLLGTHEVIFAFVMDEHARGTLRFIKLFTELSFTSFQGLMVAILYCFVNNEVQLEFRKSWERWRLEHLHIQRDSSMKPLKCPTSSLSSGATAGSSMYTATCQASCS
For `O=C(O)c1ccc2nc(CN3CC=C(c4cccc(OCc5ccc(C#CC6CC6)cc5F)c4)CC3)n(C[C@@H]3CCO3)c2c1` [Compound 199, (S)-2-((4-(3-((4-(cyclopropylethynyl)-2-fluorobenzyl)oxy)phenyl)-3,6-dihydropyridin-1(2H)-yl)methyl)-1-(oxetan-2-ylmethyl)-1H-benzo[d]imidazole-6-carboxylicacid], the EC50 is no more than 150 nM.
Regarding `O=C(O)c1ccc2nc(CN3CC=C(c4nccc(OCc5ccc(C#CC6CC6)cc5F)n4)CC3)n(C[C@@H]3CCO3)c2c1` [Compound 200, (S)-2-((4-(4-((4-(cyclopropylethynyl)-2-fluorobenzyl)oxy)pyrimidin-2-yl)-3,6-dihydropyridin-1(2H)-yl)methyl)-1-(oxetan-2-ylmethyl)-1H-benzo[d]imidazole-6-carboxylic acid], the EC50 was no more than 15 nM.
In the case of `O=C(O)c1ccc2nc(CN3CC=C(c4ccnc(OCc5ccc(C#CC6CC6)cc5F)n4)CC3)n(C[C@@H]3CCO3)c2c1` [Compound 201, (S)-2-((4-(2-((4-(cyclopropylethynyl)-2-fluorobenzyl)oxy)pyrimidin-4-yl)-3,6-dihydropyridin-1(2H)-yl)methyl)-1-(oxetan-2-ylmethyl)-1H-benzo[d]imidazole-6-carboxylic acid], the EC50 was no more than 15 nM.
As for `O=C(O)c1ccc2nc(CN3CC=C(c4ccc(F)c(OCc5ccc(C#CC6CC6)cc5F)c4)CC3)n(C[C@@H]3CCO3)c2c1` [Compound 202, (S)-2-((4-(3-((4-(cyclopropylethynyl)-2-fluorobenzyl)oxy)-4-fluorophenyl)-3,6-dihydropyridin-1(2H)-yl)methyl)-1-(oxetan-2-ylmethyl)-1H-benzo[d]imidazole-6-carboxylic acid], the EC50 was no more than 150 nM.
For the compound `O=C(O)c1ccc2nc(CN3CC=C(c4cc(F)c(F)c(OCc5ccc(C#CC6CC6)cc5F)c4)CC3)n(C[C@@H]3CCO3)c2c1` [Compound 203, (S)-2-((4-(3-(4-(cyclopropylethynyl)-2-fluorobenzyloxy)-4,5-difluorophenyl)-5,6-dihydropyridin-1(2H)-yl)methyl)-1-(oxetan-2-ylmethyl)-1H-benzo[d]imidazole-6-carboxylic acid], the EC50 is no more than 150 nM.
With `N#Cc1ccc(COc2cc(C3=CCN(Cc4nc5ccc(C(=O)O)cc5n4C[C@@H]4CCO4)CC3)ccc2F)c(F)c1` [Compound 204, (S)-2-((4-(3-((4-cyano-2-fluorobenzyl)oxy)-4-fluorophenyl)-3,6-dihydropyridin-1(2H)-yl)methyl)-1-(oxetan-2-ylmethyl)-1H-benzo[d]imidazole-6-carboxylic acid], the EC50 was no more than 15 nM.
In the case of `N#Cc1ccc(COc2cc(C3=CCN(Cc4nc5ccc(C(=O)O)cc5n4C[C@@H]4CCO4)CC3)cc(F)c2F)c(F)c1` [Compound 205, (S)-2-((4-(3-(4-cyano-2-fluorobenzyloxy)-4,5-difluorophenyl)-5,6-dihydropyridin-1(2H)-yl)methyl)-1-(oxetan-2-ylmethyl)-1H-benzo[d]imidazole-6-carboxylic acid], the EC50 was no more than 150 nM.
As for `N#Cc1ccc(COc2ccc(F)c(C3=CCN(Cc4nc5ccc(C(=O)O)cc5n4C[C@@H]4CCO4)CC3)c2)c(F)c1` [Compound 206, (S)-2-((4-(5-((4-cyano-2-fluorobenzyl)oxy)-2-fluorophenyl)-3,6-dihydropyridin-1(2H)-yl)methyl)-1-(oxetan-2-ylmethyl)-1H-benzo[d]imidazole-6-carboxylic add], the EC50 was no more than 15 nM.
In the case of `O=C(O)c1ccc2nc(CN3CC=C(c4cc(OCc5ccc(C#CC6CC6)cc5F)ccc4F)CC3)n(C[C@@H]3CCO3)c2c1` [Compound 208], the EC50 was no more than 150 nM.
As for `O=C(O)c1ccc2nc(CN3CC=C(c4ncc(F)c(OCc5ccc(C#CC6CC6)cc5F)n4)CC3)n(C[C@@H]3CCO3)c2c1` [Compound 209, (S)-2-((4-(4-((4-(cyclopropylethynyl)-2-fluorobenzyl)oxy)-5-fluoropyrimidin-2-yl)-3,6-dihydropyridin-1(2H)-yl)methyl)-1-(oxetan-2-ylmethyl)-1H-benzo[d]imidazole-6-carboxylic add], the EC50 is no more than 15 nM.
Consider `N#Cc1ccc(COc2ncc(F)c(C3=CCN(Cc4nc5ccc(C(=O)O)cc5n4C[C@@H]4CCO4)CC3)n2)c(F)c1` [Compound 210, (S)-2-((4-(2-(4-cyano-2-fluorobenzyloxy)-5-fluoropyrimidin-4-yl)-5,6-dihydropyridin-1(2H)-yl)methyl)-1-(oxetan-2-ylmethyl)-1H-benzo[d]imidazole-6-carboxylic add], for which the EC50 was no more than 15 nM.
Regarding `O=C(O)c1ccc2nc(CN3CC=C(c4nc(OCc5ccc(C#CC6CC6)cc5F)ncc4F)CC3)n(C[C@@H]3CCO3)c2c1` [Compound 211, (S)-2-((4-(2-(4-(cyclopropylethynyl)-2-fluorobenzyloxy)-5-fluoropyrimidin-4-yl)-5,6-dihydropyridin-1(2H)-yl)methyl)-1-(oxetan-2-ylmethyl)-1H-benzo[d]imidazole-6-carboxylic acid], the EC50 is no more than 15 nM.
Take `N#Cc1ccc(COc2nc(C3=CCN(Cc4nc5ccc(C(=O)O)cc5n4C[C@@H]4CCO4)CC3)c(F)cc2F)c(F)c1` [Compound 212, (S)-2-((6-((4-cyano-2-fluorobenzyl)oxy)-3,5-difluoro-3′,6′-dihydro-[2,4′-bipyridin]-1′(2′H)-yl)methyl)-1-(oxetan-2-ylmethyl)-1H-benzo[d]imidazole-6-carboxylic add]: the EC50 is no more than 15 nM.
In the case of `O=C(O)c1ccc2nc(CN3CC=C(c4nc(OCc5ccc(C#CC6CC6)cc5F)c(F)cc4F)CC3)n(C[C@@H]3CCO3)c2c1` [Compound 213, (S)-2-((4-(6-(4-(cyclopropylethynyl)-2-fluorobenzyloxy)-3,5-difluoropyridin-2-yl)-5,6-dihydropyridin-1(2H)-yl)methyl)-3-(oxetan-2-ylmethyl)-3H-benzo[d]imidazole-5-carboxylic add], the EC50 is no more than 15 nM.
For `O=C(O)c1ccc2nc(CN3CC=C(c4nccc(OCc5ccc(F)cc5F)n4)CC3)n(C[C@@H]3CCO3)c2c1` [Compound 214, (S)-2-((4-(4-((2,4-difluorobenzyl)oxy)pyrimidin-2-yl)-3,6-dihydropyridin-1(2H)-yl)methyl)-1-(oxetan-2-ylmethyl)-1H-benzo[d]imidazole-6-carboxylic add], the EC50 was no more than 150 nM.
Take `O=C(O)c1ccc2nc(CN3CC=C(c4ccnc(OCc5ccc(F)cc5F)n4)CC3)n(C[C@@H]3CCO3)c2c1` [Compound 215, (S)-2-((4-(2-((2H-difluorobenzyl)oxy)pyrimidin-4-yl)-3,6-dihydropyridin-1(2H)-yl)methyl)-1-(oxetan-2-ylmethyl)-1H-benzo[d]imidazole-6-carboxylic acid]: the EC50 is no more than 150 nM.
For the compound `O=C(O)c1ccc2nc(CN3CC=C(c4nc(OCc5ccc(F)cc5F)c(F)cc4F)CC3)n(C[C@@H]3CCO3)c2c1` [Compound 216, (S)-2-((4-(6-(2,4-difluorobenzyloxy)-3,5-difluoropyridin-2-yl)-5,6-dihydropyridin-1(2H)-yl)methyl)-1-(oxetan-2-ylmethyl)-1H-benzo[d]imidazole-6-carboxylic acid], the EC50 was no more than 15 nM.
Take `N#Cc1ccc(CNc2nc(C3=CCN(Cc4nc5ccc(C(=O)O)cc5n4C[C@@H]4CCO4)CC3)c(F)cc2F)c(F)c1` [Compound 217, (S)-2-((6-((4-cyano-2-fluorobenzyl)amino)-3,5-difluoro-3′,6′-dihydro-[2,4′-bipyridin]-1′(2′H)-yl)methyl)-1-(oxetan-2-ylmethyl)-1H-benzo[d]imidazole-6-carboxylic add]: the EC50 was no more than 15 nM.
Consider `O=C(O)c1ccc2nc(CN3CC=C(c4ccnc(OCc5ccc(C(F)(F)F)nc5)n4)CC3)n(C[C@@H]3CCO3)c2c1` [Compound 219, (S)-1-(oxetan-2-ylmethyl)-2-((4-(2-((6-(trifluoromethyl)pyridin-3-yl)methoxy)pyrimidin-4-yl)-5,6-dihydropyridin-1(2H)-yl)methyl)-1H-benzo[d]imidazole-6-carboxylic acid], for which the concentration giving a half-maximal response (EC50) is no more than 1000 nM.
The same measure for `O=C(O)c1ccc2nc(CN3CC=C(c4nc(OCc5ccc(C(F)(F)F)nc5)c(F)cc4F)CC3)n(C[C@@H]3CCO3)c2c1` [Compound 220, (S)-2-((3,5-difluoro-6-((6-(trifluoromethyl)pyridin-3-yl)methoxy)-5′,6′-dihydro-[2,4′-bipyridin]-1′(2′H)-yl)methyl)-1-(oxetan-2-ylmethyl)-1H-benzo[d]imidazole-6-carboxylic acid]: no more than 15 nM; for `N#Cc1ccc(COc2ccc(F)c(C3=CCN(Cc4nc5ccc(C(=O)O)cc5n4C[C@@H]4CCO4)CC3)n2)c(F)c1` [Compound 223, (S)-2-((6-((4-cyano-2-fluorobenzyl)oxy)-3-fluoro-3′,6′-dihydro-[2,4′-bipyridin]-1(2′H)-yl)methyl)-1-(oxetan-2-ylmethyl)-1H-benzo[d]imidazole-6-carboxylic acid]: no more than 15 nM; for `N#Cc1ccc(COc2cccc(N3CCC(Cc4nc5ccc(C(=O)O)cc5n4C[C@@H]4CCO4)CC3)n2)c(F)c1` [Compound 226, (S)-2-((l-(6-((4-cyano-2-fluorobenzyl)oxy)pyridin-2-yl)piperidin-4-yl)methyl)-1-(oxetan-2-ylmethyl)-1H-benzo[d]imidazole-6-carboxylic acid]: no more than 15 nM.
For the compound `O=C(O)c1ccc2nc(CC3CCN(c4cccc(OCc5ccc(F)cc5F)n4)CC3)n(C[C@@H]3CCO3)c2n1` [Compound 229, (S)-2-((l-(6-((2,4-difluorobenzyl)oxy)pyridin-2-yl)piperidin-4-yl)methyl)-3-(oxetan-2-ylmethyl)-3H-imidazo[4,5-b]pyridine-5-carboxylic acid], the EC50 is no more than 15 nM.
On to `O=C(O)c1ccc2nc(CC3CCN(c4cccc(OCc5ccc(Cl)cn5)n4)CC3)n(C[C@@H]3CCO3)c2n1` [Compound 230, (S)-2-((l-(6-((5-chloropyridin-2-yl)methoxy)pyridin-2-yl)piperidin-4-yl)methyl)-3-(oxetan-2-ylmethyl)-3H-imidazo[4,5-b]pyridine-5-carboxylic acid], for which the EC50 is no more than 150 nM.

These data come from patent US10844049B2, “GLP-1R agonists and uses thereof” (QILU REGOR THERAPEUTICS INC., priority 2018, dated 2020).
